Source: patent US6313179A, “Treatment of hyperproliferative skin disorders with C18 to C20 aliphatic alcohols” (Avanir Pharmaceuticals, priority 1998, dated 2001)
“And” between values parts separate entries of the source, which are not always exact repeats. Identical values can stand only once. Like-named read-outs stand apart in the source and are kept apart here.

What was measured:
keloid cells = assay: Comparison of n-docosanol effect between keloid and normal cells: keloid cells (Example 2); type: cell-based, Human; details: 15 mM; for inhibition at 15000 µM / activity at 15000 µM: Homo sapiens; for inhibition at 15000 µM: read-out: inhibition of number of keloid cells per well; for activity at 15000 µM / cells/well: Table 2; for activity at 15000 µM: compared to cells incubated with no addition, read-out: % control
Method: (§1) Human keloid fibroblasts were obtained from the American Type Culture Collection (Rockville, Md.) (CRL 1762). n-Docosanol (300 mM) was suspended in the nonionic surfactant Pluronic F-68 (12 mM) as described previously (Katz et al., Proc. Natl. Acad. Sci. U.S.A., 88:10825-10829, 1991, hereby incorporated by reference). A vehicle control was prepared using the same procedure except n-docosanol was omitted. Keloid cells (2.7×10^4per well) were added to 16 mm wells containing DMEM supplemented with 10% fetal calf serum (FCS), sodium pyruvate, L-glutamine and penicillin/streptomycin. n-Docosanol (15 mM) or the corresponding Pluronic F-68 control (0.6 mM) was added (total volume=2.0 ml). Cells were harvested after incubation for 72 and 168 hours at 37° C. in a humidified 10% CO2 incubator. The number of viable cells was determined by trypan blue staining.
(§2) Human fetal lung cells (HFL; ATCC CCL 153) and keloid cells (5×10^4 cells/well) were separately added to 16 mm wells and treated as described in Example 1. The results are shown in Tables 2 (keloid cells) and 3 (human fetal lung cells).

[1] = test system: Human fetal lung cells (HFL; ATCC CCL 153); assay: Comparison of n-docosanol effect between keloid and normal cells: human fetal lung cells (Example 2); type: cell-based; details: 15 mM; for activity at 15000 µM: Homo sapiens, compared to cells incubated with no addition, read-out: % control; for activity at 15000 µM / cells/well: Table 3
Method: as §1, §2

[2] = test system: normal skin fibroblast (ATCC CRL 1900) cells; assay: Proliferation study, normal skin fibroblasts (Example 3); type: cell-based
Method: (§3) The following experiment examined the effect of n-docosanol on cell proliferation and quantitation of n-[1-^14 C]docosanol binding to keloid, Vero (normal African green monkey kidney; ATCC CCL 81) and normal skin fibroblast (ATCC CRL 1900) cells.
(§4) Human keloid fibroblasts, normal control skin fibroblasts and Vero cells were obtained from ATCC. n-Docosanol (30 mM) was suspended in Pluronic F-68 (1.2 mM) as described previously (Katz et al., ibid). A vehicle control was prepared using the same procedure except for the omission of n-docosanol. Radiolabeled n-[1-^14 C] docosanol suspension was prepared as described by Katz et al. (ibid.). Cells were resuspended in 1.2×10^6 cells/ml in DMEM supplemented with 10% fetal calf serum, sodium pyruvate, L-glutamine and penicillin-streptomycin. Cell suspension (0.5 ml) was added to each 35 mm well containing 1.3 ml media, followed by addition of 0.2 ml radiolabeled n-docosanol suspension (final n-docosanol concentration=3 mM). After 24 hours at 37° C. in humidified 10% CO2, the suspension was removed, wells were washed extensively with saline and cells were solubilized for scintillation counting by incubation with 0.5 ml trypsin for 15 min at 37° C. Solubilized cells were counted in a Beckman LS6000 scintillation counter. Samples were corrected for nonspecific binding to plates by subtracting values obtained in control wells lacking cells. To determine cell number, duplicate plates were treated with non-radiolabeled n-docosanol or control suspension at the same concentration or were left untreated. The number of viable cells was determined by trypan blue staining.

Human keloid fibroblasts = assay: Radiolabeled n-docosanol binding to keloid cells (Example 3); type: cell-based; details: 24 hours
Method: as §4

[3] = test system: normal skin fibroblast (ATCC CRL 1900) cells; assay: Radiolabeled n-docosanol binding to normal skin fibroblasts (Example 3); type: cell-based; details: Table 4, n-[1-14C]docosanol 3 mM, 24 hours
Method: as §3
as §4, with “Samples were corrected for nonspecific binding to plates by subtracting values obtained in control wells lacking cells. To determine cell number, duplicate plates were treated with non-radiolabeled n-docosanol or control suspension at the same concentration or were left untreated.” left out

[4] = test system: Vero (normal African green monkey kidney; ATCC CCL 81) cells; assay: Radiolabeled n-docosanol binding to Vero cells (Example 3); type: cell-based; details: Table 4, n-[1-14C]docosanol 3 mM, 24 hours
Method: as §3
as §4, with “Samples were corrected for nonspecific binding to plates by subtracting values obtained in control wells lacking cells. To determine cell number, duplicate plates were treated with non-radiolabeled n-docosanol or control suspension at the same concentration or were left untreated.” left out

[5] = test system: cutaneous Kaposi's sarcoma; assay: Treatment of Kaposi's sarcoma with 10% n-docosanol cream (Example 6); type: in vivo, Human; details: 10% cream
Method: HIV-positive male patients presenting with treatment-resistant cutaneous Kaposi's sarcoma were treated for 28 days, 5 times daily with the 10% n-docosanol cream formulation described in Example 4. Response to treatment was evaluated according to lesion dimensions, color of the lesion and the type of lesion (hard, soft or nodule). The data were recorded on intermittent days throughout the 28 days of the study and values were compared to baseline observations made on Day 1. Three target lesions were evaluated in each patient. Thus far, five patients have completed the study.

herpes simplex virus = details: suspended in a surfactant; cell culture assays; cited from earlier work
[6] = test system: respiratory syncytial virus; details: suspended in a surfactant; cell culture assays; cited from earlier work
[7] = concentrations up to 300 mM; cited from earlier work
[8] = one patient, Day 15 and thereafter

Work on `CCCCCCCCCCCCCCCCCCCCCCO` [n-docosanol] yielded an inhibition at 15000 µM (keloid cells; 72 hours) of 36%, an inhibition at 15000 µM (keloid cells; 168 hours) of 85% and an activity at 15000 µM (keloid cells; 72 hours) of 64%. The activity at 15000 µM (keloid cells; 168 hours) was 15%, the cells/well (keloid cells; 72 hours) was 1.1 × 10^4 cells/well and the cells/well (keloid cells; 168 hours) was 0.4 × 10^4 cells/well. For the same compound, the “number of human fetal lung cells (in words)” value ([1]; at both time intervals (72 and 168 hours)) was “significantly increased”, the activity at 15000 µM ([1]; 72 hours) was 116% and the activity at 15000 µM ([1]; 168 hours) was 250%. For the same compound, the cells/well ([1]; 72 hours) was 5.8 × 10^4 cells/well, the cells/well ([1]; 168 hours) was 20 × 10^4 cells/well and the “number of CRL-1900 normal skin fibroblasts (in words)” value ([2]; 3 mM, one day incubation) was “not decreased”. The activity at 3000 µM ([2]; Skin fibroblast, Table 4, CRL-1900, 3 mM, 24 hours, compared to cells incubated with no addition, read-out: % ctrl) was 98%, the No. cells ([2]; Table 4, CRL-1900, 3 mM, 24 hours) was 5.4 × 10^5 cells and the “growth of normal cells (in words)” value ([2]; under the tissue culture conditions used, general statement on normal cells) was “unaffected”. The “amount of radiolabeled n-docosanol bound to keloid as compared to CRL 1900 cells” value (Human keloid fibroblasts; 3 mM, vs CRL 1900) was “About three”, the “Binding per 10^6 cells” value (Human keloid fibroblasts; Table 4, Keloid, n-[1-14C]docosanol 3 mM) was 45.5 μg and the “Binding per 10^6 cells” value [3] was 15.6 μg. For the same compound, the “Binding per 10^6 cells” value [4] was 8.9 μg, the “patients with a response (reduction in the size of the lesions)” value ([5]; Day 28 vs Day 1) was “three out of five” and the “lesions with reduction in size, two patients” value ([5]; Day 28 vs Day 1, each of two patients) was 3 out of 3. For the same compound, the “lesions with reduction in size, one patient” value ([5]; Day 28 vs Day 1, one patient) was 2 out of 3, the “color changes in lesions” value ([5]; all five patients, all lesions) was “color changes in all lesions to a lighter color” and the “increase in lesion size” value ([5]; any of the 15 lesions studied) was “not observed”. For the same compound, the disappearance of lesion ([5]; by Day 3, one lesion) was “One lesion completely disappeared by Day 3”, the clinically observed swelling [5, 8] was “decrease in the clinically observed swelling” and the pain of lesions [5, 8] was “less painful”. For the same compound, the “Day 28 Color” value ([5]; Table 5, 5 times daily, 28 days, per patient and lesion) was “pale and gone and pale pink and very pale and pink and tan and lighter”, the “percent reduction in lesion size” value ([5]; Table 5, Day 28 vs Day 1, 5 times daily, per patient and lesion) was 75% and gone and 74% and 19% and 20% and 0% and 28% and 10% and the antiviral activity (herpes simplex virus) was “potent antiviral activity”. For the same compound, the antiviral activity [6] was “potent antiviral activity” and the cytotoxicity [7] was “not cytotoxic in concentrations up to 300 mM”.
